According to patent US9512120B2, “Microbicidally active imidazopyridine derivatives” (Syngenta Participations AG, priority 2013, dated 2016):

How the values were obtained:
[1] = tested on: Gaeumannomyces graminis; assay: Gaeumannomyces graminis / liquid culture (take-all of cereals); type: cell-based; conditions: PDB, 24° C., 4-5 days after application, read-out: control of Gaeumannomyces graminis (inhibition of growth, photometric)
Outline: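 Growth inhibition, measured by photometry 4-5 days post-application at 24 °C, of fungal mycelial fragments in PDB broth. Test compound applied as DMSO solution at 200 ppm.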

[2] = tested on: Botryotinia fuckeliana (Botrytis cinerea); assay: Botryotinia fuckeliana (Botrytis cinerea) / liquid culture (gray mould); type: cell-based; conditions: Vogels broth, 24° C., 3-4 days after application, read-out: control of Botryotinia fuckeliana (inhibition of growth, photometric)
Outline: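 Test compound was applied at 200 ppm in DMSO, then Vogels nutrient broth containing cryo-stored B. cinerea conidia was added. Photometric growth-inhibition reading followed after 3-4 days at 24 °C.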

[3] = tested on: Puccinia recondita f. sp. Tritici; assay: Puccinia recondita f. sp. tritici / wheat / leaf disc curative (brown rust); type: in vivo; conditions: foliar, wheat leaf segments cv Kanzler, applied 1 day after inoculation, assessed 6-8 days after application, read-out: control of Puccinia recondita f. sp. Tritici (percent disease control compared to untreated)
Protocol: Puccinia recondita f. Sp. Tritici/Wheat/Leaf Disc Curative (Brown Rust): Wheat leaf segments cv Kanzler were placed on agar in 24-well plates. The leaf segments were inoculated with a spore suspension of the fungus. The plates were stored in darkness at 19° C. and 75% relative humidity. The formulated test compound diluted in water was applied at an application rate of 200 ppm 1 day after inoculation. […] Tritici at 200 ppm when compared to untreated control leaf disks under the same conditions, which show extensive disease development: 2, 13, 16, 23, 30, 61, 75, 89, 103, 173, 174

[4] = tested on: Mycosphaerella graminicola (Septoria tritici); assay: Mycosphaerella graminicola (Septoria tritici) / liquid culture (Septoria blotch); type: cell-based; conditions: Zymoseptoria tritici, PDB, 24° C., 4-5 days after application, read-out: control of Mycosphaerella graminicola (inhibition of growth, photometric)
Outline: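 Growth inhibition was read photometrically after 4–5 days at 24 °C. The test compound was applied at 200 ppm from DMSO solution, then PDB broth seeded with conidia taken straight from cryogenic storage was added.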

[5] = tested on: Pyrenophora teres; assay: Pyrenophora teres / barley / leaf disc preventative (net blotch); type: in vivo; conditions: foliar, barley leaf segments cv Hasso, inoculated two days after application, assessed 5-7 days after application, read-out: control of Pyrenophora teres (disease control compared to untreated)
Outline: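 Preventative leaf-disc test: 200 ppm spray, then spore inoculation after two days on barley cv Hasso segments. Incubation 20 °C, 65% relative humidity, 12 h light/12 h dark; efficacy rated against untreated checks at 5-7 days post-application.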

[6] = tested on: Thanatephorus cucumeris (Rhizoctonia solani); assay: Thanatephorus cucumeris (Rhizoctonia solani) / liquid culture (foot rot, damping-off); type: cell-based; conditions: PDB, 24° C., 3-4 days after application, read-out: control of Thanatephorus cucumeris (inhibition of growth, photometric)
Outline: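 At 200 ppm, compounds in DMSO were combined with fresh liquid-culture mycelia in PDB and kept at 24° C; photometric measurement of growth inhibition after 3-4 days.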

[7] = tested on: Fusarium graminearum, syn. Gibberella zeae; assay: whole plant or invertebrate; type: in vivo; conditions: in Triticum aestivum, 144 h, read-out: control of Gibberella zeae (preventative fungicidal activity)
[8] = tested on: Blumeria graminis f. Sp. Tritici (Erysiphe graminis f. Sp. Tritici); assay: Blumeria graminis f. sp. tritici / wheat / leaf disc preventative (powdery mildew on wheat); type: in vivo; conditions: foliar, wheat leaf segments cv. Kanzler, inoculated 1 day after application, assessed 6-8 days after application, read-out: control of Blumeria graminis (percent disease control compared to untreated)
Outline: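 Wheat leaf segments (cv. Kanzler) on agar sprayed with formulated compound at 200 ppm, inoculated with powdery mildew 1 day later. Held at 20 °C, 60% RH, 24 h dark then 12 h/12 h light; percent disease control versus untreated scored 6-8 days after application.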

[9] = tested on: Puccinia recondita f. sp. Tritici; assay: Puccinia recondita f. sp. tritici / wheat / leaf disc preventative (brown rust); type: in vivo; conditions: foliar, wheat leaf segments cv Kanzler, inoculated 1 day after application, assessed 7-9 days after application, read-out: control of Puccinia recondita f. sp. Tritici (percent disease control compared to untreated)
Outline: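 Preventative test: percent disease control relative to untreated leaf segments was assessed 7-9 days post-application. Wheat (cv Kanzler) leaf discs were treated at 200 ppm and spore-inoculated 1 day afterwards. Discs were held at 19° C and 75% relative humidity under a 12/12 h light cycle.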

[10] = tested on: Glomerella lagenarium (Colletotrichum lagenarium); assay: Glomerella lagenarium (Colletotrichum lagenarium) / liquid culture (anthracnose); type: cell-based; conditions: Colletotrichum orbiculare, PDB, 24° C., 3-4 days after application, read-out: control of Glomerella lagenarium (inhibition of growth, photometric)
Outline: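 Test compound, delivered in DMSO at an application rate of 200 ppm, was combined with spore-containing PDB. Photometric growth-inhibition measurement followed 3-4 days of incubation at 24° C.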

[11] = tested on: Phaeosphaeria nodorum (Septoria nodorum); assay: Phaeosphaeria nodorum (Septoria nodorum) / wheat / leaf disc preventative (glume blotch); type: in vivo; conditions: Parastagonospora nodorum, foliar, wheat leaf segments cv Kanzler, inoculated 2 days after application, assessed 5-7 days after application, read-out: control of Phaeosphaeria nodorum (percent disease control compared to untreated)
Outline: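 Wheat leaf segments (cv Kanzler) on agar sprayed with compound at 200 ppm, inoculated with spores 2 days later. Incubated at 20° C., 75% relative humidity, 12/12 h light/dark; percent disease control versus untreated scored 5-7 days after application.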

[12] = tested on: Sclerotinia sclerotiorum; assay: Sclerotinia sclerotiorum liquid culture (cottony rot / white mold); type: cell-based; conditions: PDB, 24° C., 3-4 days after application, read-out: control of Sclerotinia sclerotiorum (inhibition of growth, photometric)
Outline: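 Mycelia fragments of Sclerotinia sclerotiorum in potato dextrose broth were added to compound in DMSO. Cultures incubated at 24° C; growth inhibition determined photometrically 3-4 days after application.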

[13] = tested on: Pythium ultimum; assay: Pythium ultimum / liquid culture (seedling damping off); type: cell-based; conditions: Globisporangium ultimum, potato dextrose broth, 24° C., 2-3 days after application, read-out: control of Pythium ultimum (inhibition of growth, photometric)
Outline: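 Test compound in DMSO at 200 ppm was incubated with mycelia fragments and oospores in potato dextrose broth at 24 °C. Growth inhibition was read photometrically 2-3 days after application.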

[14] = tested on: Fusarium culmorum; assay: microbe, parasite or virus in culture; type: cell-based; conditions: read-out: control of Fusarium culmorum (inhibition of growth, photometric)
[15] = tested on: Plasmopara viticola; assay: Plasmopara viticola / grape / leaf disc preventative; type: in vivo; conditions: foliar, grape vine leaf disks, inoculated 1 day after application, assessed 6-8 days after application, read-out: control of Plasmopara viticola (percent disease control compared to untreated)
[16] = tested on: Mycosphaerella arachidis (Cercospora arachidicola); assay: Mycosphaerella arachidis (Cercospora arachidicola) / liquid culture (early leaf spot); type: cell-based; conditions: PDB, 24° C., 4-5 days after application, read-out: control of Mycosphaerella arachidis (inhibition of growth, photometric)
Outline: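 Conidia suspended in potato dextrose broth and added to test compound from DMSO solution at 200 ppm. Incubated at 24 °C; growth inhibition read photometrically 4-5 days after application.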

[17] = tested on: Monographella nivalis (Microdochium nivale); assay: Monographella nivalis (Microdochium nivale) / liquid culture (foot rot cereals); type: cell-based; conditions: PDB, 24° C., 4-5 days after application, read-out: control of Monographella nivalis (inhibition of growth, photometric)
Outline: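 Cryostored conidia in potato dextrose broth were added to test compound dispensed from DMSO at 200 ppm. Plates were kept at 24° C, and growth inhibition was read photometrically 4-5 days after application.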

SMILES	inhibition at 20 ppm [1] [%]	inhibition at 20 ppm [2] [%]	pest or weed control at 200 ppm [3] [%]	inhibition at 20 ppm [4] [%]	pest or weed control at 200 ppm [5] [%]	inhibition at 20 ppm [6] [%]	pest or weed control at 20 ppm [7] [%]	pest or weed control at 200 ppm [8] [%]	pest or weed control at 200 ppm [9] [%]	melting point [°C]	inhibition at 20 ppm [10] [%]	pest or weed control at 200 ppm [11] [%]	inhibition at 20 ppm [12] [%]	inhibition at 20 ppm [13] [%]	inhibition at 20 ppm [14] [%]	pest or weed control at 200 ppm [15] [%]	inhibition at 20 ppm [16] [%]	inhibition at 20 ppm [17] [%]
Nc1ncnn1-c1nc2cnccc2n1C1CCCCC1 [Compound 2, 2-(1-cyclohexylimidazo[4,5-c]pyridin-2-yl)-1,2,4-triazol-3-amine]	≥ 80	≥ 80	≥ 80	≥ 80	≥ 80	≥ 80	≥ 80	≥ 80	≥ 80									
CC=Cn1c(-n2ncnc2N)nc2cnccc21 [Compound 16, 2-(1-prop-1-enylimidazo[4,5-c]pyridin-2-yl)-1,2,4-triazol-3-amine]	≥ 80	≥ 80	≥ 80		≥ 80	≥ 80				199 to 200								
CCn1c(-n2ncnc2N)nc2cncc(-c3ccc(C(F)(F)F)cc3)c21 [Compound 30, 2-[1-ethyl-7-[4-(trifluoromethyl)phenyl]imidazo[4,5-c]pyridin-2-yl]-1,2,4-triazol-3-amine]		≥ 80	≥ 80		≥ 80	≥ 80			≥ 80		≥ 80	≥ 80	≥ 80					
CCn1c(-n2ncnc2N)nc2cncc(-c3cnn(C)c3)c21 [Compound 61, 2-[1-ethyl-7-(1-methylpyrazol-4-yl)imidazo[4,5-c]pyridin-2-yl]-1,2,4-triazol-3-amine]		≥ 80	≥ 80	≥ 80	≥ 80	≥ 80		≥ 80	≥ 80			≥ 80						
CCn1c(-n2ncnc2N)nc2cncc(-c3ccccc3F)c21 [Compound 79, 2-[1-ethyl-7-(2-fluorophenyl)imidazo[4,5-c]pyridin-2-yl]-1,2,4-triazol-3-amine]	≥ 80	≥ 80		≥ 80	≥ 80	≥ 80			≥ 80		≥ 80	≥ 80	≥ 80	≥ 80	≥ 80	≥ 80	≥ 80	≥ 80
CCn1c(-n2ncnc2N)nc2cncc(-c3ccc(Cl)cc3F)c21 [Compound 98, 2-[7-(4-chloro-2-fluorophenyl)-1-ethylimidazo[4,5-c]pyridin-2-yl]-1,2,4-triazol-3-amine]	≥ 80	≥ 80		≥ 80	≥ 80	≥ 80	≥ 80		≥ 80		≥ 80	≥ 80	≥ 80		≥ 80		≥ 80	≥ 80
CCn1c(-n2ncnc2N)nc2cncc(-c3cccnc3Cl)c21 [Compound 103, 2-[7-(2-chloropyridin-3-yl)-1-ethylimidazo[4,5-c]pyridin-2-yl]-1,2,4-triazol-3-amine]	≥ 80	≥ 80	≥ 80	≥ 80	≥ 80	≥ 80		≥ 80	≥ 80		≥ 80	≥ 80						≥ 80
CCn1c(-n2ncnc2N)nc2cncc(/C(C)=N\OC/C=C/Cl)c21 [Compound 149]		≥ 80		≥ 80	≥ 80	≥ 80	≥ 80		≥ 80		≥ 80	≥ 80	≥ 80	≥ 80	≥ 80	≥ 80	≥ 80	≥ 80
